Assay results as given in patent US20230382894A1, “CCR4 ANTAGONISTS” (CHEMOCENTRYX, INC., priority 2022, published 2023).

Biological target: T1, CCR4 (Homo sapiens, UniProt P51679)
T1 construct: CEM Cells Endogenous Express CCR4; endogenous in cells; host or cells: CEM cells
T1 sequence (P51679 1-360): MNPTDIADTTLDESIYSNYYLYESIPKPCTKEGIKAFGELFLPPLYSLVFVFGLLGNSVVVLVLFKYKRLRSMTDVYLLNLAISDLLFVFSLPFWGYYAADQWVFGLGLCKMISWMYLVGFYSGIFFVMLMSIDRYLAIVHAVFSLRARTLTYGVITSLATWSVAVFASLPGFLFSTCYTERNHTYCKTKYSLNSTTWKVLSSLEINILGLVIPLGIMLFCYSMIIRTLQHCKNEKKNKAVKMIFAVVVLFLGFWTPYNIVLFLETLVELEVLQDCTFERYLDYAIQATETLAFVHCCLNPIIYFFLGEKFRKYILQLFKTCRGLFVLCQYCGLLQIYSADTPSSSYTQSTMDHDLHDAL
Assay: CEM cell chemotaxis (migration) assay to CCL22 (MDC) in 100% Fetal Bovine Serum (FBS)
Format: cell-based
Conditions: CEM cells in 100% FBS with 1% HEPEs; recombinant human CCL22 0.1 nM; 37° C. 60 minutes
From the text: CEM Cells Endogenous Express CCR4
A chemotaxis assay can be used to determine the efficacy of potential receptor antagonists at blocking the migration mediated through chemokine receptors, such as CCR4. This assay is routinely performed using the ChemoTX® microchamber system with a 5 μm pore-sized polycarbonate membrane.
FBS: CEM Cells are collected by centrifugation at 400×g at room temperature, then suspended at 5 million/ml in 100% Fetal Bovine Serum (FBS) with 1% HEPEs. The compound being tested is serially diluted from a maximum final concentration of 10 μM (or an equivalent volume of its solvent (DMSO)) and is then added to the cell/buffer mixture. Separately, recombinant human CCL22 (MDC) at its EC50 concentration (0.1 nM) is placed in the lower wells of the ChemoTX® plate. The 5-μm (pore size) polycarbonate membrane was placed onto the plate, and 20 μL of the cell/compound mixture is transferred onto each well of the membrane. The plates are incubated at 37° C. for 60 minutes, after which the polycarbonate membranes are removed and 5 μl of the DNA-intercalating dye CyQUANT (Invitrogen, Carlsbad, CA) is added to the lower wells. The amount of fluorescence, corresponding to the number of migrated cells, is measured using a Spectrafluor Plus plate reader (TECAN, San Jose, CA).

SMILES	IC50
C[C@@H](Nc1nc(N2CCN(C(=O)[C@H]3CCCN3)CC2)ncc1OC(F)F)c1ccc(Cl)cc1Cl [Example 1.172]	< 0.1 µM
CCOc1cnc(N2CCN(C(=O)[C@H]3CCCN3)CC2)nc1N[C@H](C)c1ccc(Cl)cc1Cl [Example 1.181]	< 0.1 µM
C[C@@H](Nc1nc(N2CCC(C(=O)NC[C@H]3CCC(=O)N3)CC2)ncc1Cl)c1ccc(Cl)cc1Cl [Example 1.235]	> 1 µM
C[C@@H](Nc1nc(C2CCN(C(=O)[C@H]3CCCN3)CC2)ncc1Cl)c1ccc(Cl)cc1Cl [Example 1.159]	< 0.1 µM
COc1cnc(N2CCN(C(=O)[C@H]3CN(C)C(=O)N3)CC2)nc1N[C@H](C)c1ccc(Cl)cc1Cl [Example 1.096]	< 0.1 µM
CCOc1cnc(N2CCN(C(=O)[C@H]3CCN(C)C3)CC2)nc1N[C@H](C)c1ccc(Cl)cc1Cl [Example 1.184]	< 0.1 µM
C[C@@H](Nc1nc(N2CCN(C(=O)[C@H]3CC(=O)N3)CC2)ncc1Cl)c1ccc(Cl)cc1Cl [Example 1.232]	0.1 to 1 µM
C[C@@H](Nc1ccnc(N2CCN(C(=O)[C@H]3CCCN3)CC2)n1)c1ccc(Cl)cc1Cl [Example 1.115]	< 0.1 µM
COCc1cnc(N2CCN(C(=O)[C@H]3CCC(=O)N3)CC2)nc1N[C@H](C)c1ccc(Cl)cc1Cl [Example 1.102]	< 0.1 µM
C[C@@H](Nc1nc(N2CCN(C(=O)CCN3CCCC3=O)CC2)ncc1Cl)c1ccc(Cl)cc1Cl [Example 1.191]	0.1 to 1 µM
CC(=O)N1CCC[C@@H]1C(=O)N1CCN(c2ncc(Cl)c(N[C@H](C)c3ccc(Cl)cc3Cl)n2)CC1 [Example 1.237]	0.1 to 1 µM
CC(C)Oc1cnc(N2CCN(C(=O)[C@H]3CCCN3)CC2)nc1N[C@H](C)c1ccc(Cl)cc1Cl [Example 1.174]	< 0.1 µM
CCOc1cnc(N2CCN(C(=O)[C@H]3CCC(=O)N3)CC2)nc1N[C@H](C)c1ccc(Cl)cc1Cl [Example 1.182]	< 0.1 µM
C[C@@H](Nc1nc(N2CCN(C(=O)[C@H](N)CO)CC2)ncc1Cl)c1ccc(Cl)cc1Cl [Example 1.213]	0.1 to 1 µM
C[C@@H](Nc1nc(N2CCN(C(=O)c3cn(C)cn3)CC2)ncc1Cl)c1ccc(Cl)cc1Cl [Example 1.217]	0.1 to 1 µM
C[C@@H](Nc1nc(N2CCN(C(=O)C[C@H]3CCC(=O)N3)CC2)ncc1Cl)c1ccc(Cl)cc1Cl [Example 1.234]	0.1 to 1 µM
C[C@@H](Nc1nc(N2CCN(C(=O)C3CCCC(=O)N3)CC2)ncc1Cl)c1ccc(Cl)cc1Cl (stereo partly shown) [Example 1.240]	< 0.1 µM
C[C@@H](Nc1nc(N2CCC(OC3CNC3)CC2)ncc1Cl)c1ccc(Cl)cc1Cl [Example 1.199]	0.1 to 1 µM
C[C@@H](Nc1nc(N2CC[C@H](NC(=O)[C@H]3C[C@@H](O)CN3)[C@@H](O)C2)ncc1Cl)c1ccc(Cl)cc1Cl [Example 1.216]	0.1 to 1 µM
C[C@@H](Nc1nc(N2CCN(C(=O)[C@H]3CCCN3)CC2)ncc1O)c1ccc(Cl)cc1Cl [Example 1.167]	< 0.1 µM

SMILES	IC50
C[C@@H](Nc1nc(N2CCN(C(=O)[C@]3(C)CCCN3)CC2)ncc1Cl)c1ccc(Cl)cc1Cl [Example 1.208]	< 0.1 µM
C[C@@H](Nc1nc(N2CCC(O[C@H]3CCN(CCO)C3)CC2)ncc1Cl)c1ccc(Cl)cc1Cl [Example 1.193]	< 0.1 µM
C[C@@H](Nc1nc(N2CCN(C(=O)[C@H]3CCCN3)CC2)ncc1OCC(F)(F)F)c1ccc(Cl)cc1Cl [Example 1.108]	< 0.1 µM
C[C@@H](Nc1nc(N2CCN(C(=O)[C@H]3CCCN3)CC2)ncc1N)c1ccc(Cl)cc1Cl [Example 1.094]	< 0.1 µM
C[C@@H](Nc1nc(N2CCN(C(=O)[C@H]3C[C@@H](F)CN3)CC2)ncc1Cl)c1ccc(Cl)cc1Cl [Example 1.140]	< 0.1 µM
C[C@@H](Nc1nc(N2CCN(C(=O)[C@@H]3COCCN3)CC2)ncc1Cl)c1ccc(Cl)cc1Cl [Example 1.128]	0.1 to 1 µM
C[C@@H](Nc1nc(N2CC[C@H](N(C)C(=O)[C@H]3CCCN3)[C@@H](O)C2)ncc1Cl)c1ccc(Cl)cc1Cl [Example 1.194]	0.1 to 1 µM
C[C@@H](Nc1nc(N2CC[C@H](NC(=O)[C@H]3CCC(=O)N3)[C@H](O)C2)ncc1F)c1ccc(Cl)cc1Cl [Example 1.091]	> 1 µM
C[C@@H](Nc1nc(N2CCN(C(=O)[C@H]3CN(C)C(=O)N3)CC2)ncc1Cl)c1ccc(Cl)cc1Cl [Example 1.227]	< 0.1 µM
C[C@@H](Nc1nc(N2CCC(C3CCCN(CCC(N)=O)C3)CC2)ncc1Cl)c1ccc(Cl)cc1Cl (stereo partly shown) [Example 1.127]	< 0.1 µM
C[C@@H](Nc1nc(N2CCN(C(=O)[C@H]3CCCN3)CC2)ncc1C1CC1)c1ccc(Cl)cc1Cl [Example 1.114]	< 0.1 µM
C[C@@H](Nc1nc(N2CCN(C(=O)[C@@H]3CNCCO3)CC2)ncc1Cl)c1ccc(Cl)cc1Cl [Example 1.145]	< 0.1 µM
C[C@@H](Nc1nc(N2CCN(C(=O)[C@@H]3CNCC(=O)N3)CC2)ncc1Cl)c1ccc(Cl)cc1Cl [Example 1.229]	> 1 µM
C[C@@H](Nc1nc(N2CC[C@@H](NC(=O)[C@H]3CCCN3)[C@H](O)C2)ncc1OC(F)F)c1ccc(Cl)cc1Cl [Example 1.118]	< 0.1 µM
Cc1cc(Cl)ccc1[C@@H](C)Nc1nc(N2CCN(C(=O)[C@H]3CCC(=O)N3)CC2)ncc1Cl [Example 1.088]	0.1 to 1 µM
C[C@@H](Nc1nc(N2CCN(C(=O)CCN3CCOCC3)CC2)ncc1Cl)c1ccc(Cl)cc1Cl [Example 1.196]	0.1 to 1 µM
COc1cnc(N2CCN(C(=O)[C@H]3CCCN3)CC2)nc1N[C@H](C)c1ccc(Cl)cc1Cl [Example 1.197]	< 0.1 µM
C[C@@H]1CC[C@H](C(=O)N[C@H]2CCN(c3ncc(Cl)c(N[C@H](C)c4ccc(Cl)cc4Cl)n3)C[C@@H]2O)N1 [Example 1.248]	< 0.1 µM
COc1cnc(N2CC[C@H](NC(=O)[C@H]3CCCN3)[C@@H](O)C2)nc1N[C@H](C)c1ccc(Cl)cc1Cl [Example 1.179]	< 0.1 µM
C[C@@H](Nc1nc(N2CCC(C(=O)N[C@@H]3CCNC3=O)CC2)ncc1Cl)c1ccc(Cl)cc1Cl [Example 1.228]	0.1 to 1 µM

SMILES	IC50
C[C@@H](Nc1nc(N2CCN(C(=O)C3CNC(=O)C3)CC2)ncc1Cl)c1ccc(Cl)cc1Cl (stereo partly shown) [Example 1.147]	< 0.1 µM
C[C@@H](Nc1nc(N2CCC(O[C@H]3CCNC3)CC2)ncc1Cl)c1ccc(Cl)cc1Cl [Example 1.230]	< 0.1 µM
C[C@@H](Nc1nc(N2CCC(O[C@@H]3CNC[C@@H]3F)CC2)ncc1Cl)c1ccc(Cl)cc1Cl [Example 1.190]	< 0.1 µM
C[C@@H](Nc1nc(N2CC[C@H](NC(=O)[C@H]3CCC(=O)N3)[C@@H](O)C2)ncc1F)c1ccc(Cl)cc1Cl [Example 1.100]	> 1 µM
C[C@@H](Nc1nc(N2CC[C@H](NC(=O)[C@@]3(C)CCCN3)[C@@H](O)C2)ncc1Cl)c1ccc(Cl)cc1Cl [Example 1.246]	0.1 to 1 µM
COc1cnc(N2CCC(C3CCCN(CCO)C3)CC2)nc1N[C@H](C)c1ccc(Cl)cc1Cl (stereo partly shown) [Example 1.158]	< 0.1 µM
CCOc1cnc(N2CCN(C(=O)CCN(C)C)CC2)nc1N[C@H](C)c1ccc(Cl)cc1Cl [Example 1.183]	< 0.1 µM
C[C@@H](Nc1nc(N2CCC(N(CCC(=O)O)C(=O)[C@H]3CCCN3)CC2)ncc1Cl)c1ccc(Cl)cc1Cl [Example 1.141]	> 1 µM
C[C@@H](Nc1cc(C(F)(F)F)nc(N2CCN(C(=O)[C@H]3CCC(=O)N3)CC2)n1)c1ccc(Cl)cc1Cl [Example 1.092]	0.1 to 1 µM
C[C@@H](Nc1nc(N2CC[C@H](NC(=O)CN(C)C)[C@@H](O)C2)ncc1Cl)c1ccc(Cl)cc1Cl [Example 1.203]	0.1 to 1 µM
C[C@@H](Nc1nc(N2CCN(C(=O)[C@H]3CCCN3Cc3nnn[nH]3)CC2)ncc1Cl)c1ccc(Cl)cc1Cl [Example 1.139]	< 0.1 µM
C[C@@H]1CC[C@H](C(=O)N2CCN(c3ncc(Cl)c(N[C@H](C)c4ccc(Cl)cc4Cl)n3)CC2)N1 [Example 1.247]	< 0.1 µM
C[C@@H](Nc1nc(N2CCN(C(=O)[C@H]3CCN(C)C3)CC2)ncc1C(N)=O)c1ccc(Cl)cc1Cl [Example 1.236]	< 0.1 µM
C[C@@H](Nc1nc(N2CCN(C(=O)[C@H]3CNCC(=O)N3)CC2)ncc1Cl)c1ccc(Cl)cc1Cl [Example 1.129]	< 0.1 µM
CO[C@H]1CN(c2ncc(Cl)c(N[C@H](C)c3ccc(Cl)cc3Cl)n2)CC[C@@H]1NC(=O)[C@H]1CCCN1 [Example 1.242]	< 0.1 µM
COc1cnc(N2CCN(C(=O)C[C@@H]3CCCN3)CC2)nc1N[C@H](C)c1ccc(Cl)cc1Cl [Example 1.177]	< 0.1 µM
C[C@@H](Nc1nc(N2CCN(C(=O)[C@H]3CCCC(=O)N3)CC2)ncc1Cl)c1ccc(Cl)cc1Cl [Example 1.238]	< 0.1 µM
COC[C@@H](N)C(=O)N1CCN(c2ncc(Cl)c(N[C@H](C)c3ccc(Cl)cc3Cl)n2)CC1 [Example 1.215]	0.1 to 1 µM
